The values that follow come from PMC10449817, “Different solubilizing ability of cyclodextrin derivatives for cholesterol in Niemann–Pick disease type C treatment” (Clinical and Translational Medicine, 2023).

Data set [1] relates to Npc1‐null Chinese hamster ovary cells. Briefly: Measurement of intracellular cholesterol in NPC model cells. It is filed as cell-based. As to conditions: 24 h exposure; for EC50: concentrations up to 1 mM, read-out: EC50, reduction of UC levels accumulated in Npc1‐null cells. Here is the method:
WT and Npc1‐null Chinese hamster ovary cells developed previously[34] were used. The cells were grown in a culture medium consisting of a 1:1 mixture of Dulbecco's modified Eagle's medium (DMEM) and F‐12 (Life Technologies) supplemented with 10% fetal bovine serum (FBS; Thermo Fisher Scientific, Inc.). The cells were maintained at 37°C in a saturated humidity atmosphere of 95% air and 5% CO2.
The measurement of intracellular cholesterol levels was performed in accordance with our previously developed method[35] with minor modification. Cells were pre‐incubated for 24 h and then exposed to a medium containing CD derivatives for 24 h. Thereafter, the cells were lysed, and aliquots were taken for cholesterol and protein measurements. Cholesterol was extracted from the cell lysate using chloroform, 2‐propanol and NP‐40 substitute (7:11:0.1), and the solution was then centrifuged (15 000 × g, 10 min, 4°C). The chloroform layer was evaporated, and the residues were dissolved in a solvent consisting of 2‐propanol, polyoxyethylene alkyl ether and polyoxyethylene lauryl ether (87:10:3). The dissolved samples were divided into two portions—one was incubated with esterase to measure total cholesterol (TC), and the other was incubated without esterase to measure UC. The cholesterol content was measured with a Determiner L FC kit. The EC level was calculated by deducting the UC level from the TC level. Intracellular cholesterol content was normalized by the total protein concentration as determined with a Pierce BCA Protein Assay Kit (Thermo Fisher Scientific, Inc.).

Data set [2] relates to Npc1 homozygous mutant (Npc1 ^−/−) mice. Briefly: Intracerebroventricular administration of CD derivatives in NPC model mice. Format: in vivo. The settings on record: ICV 21.4 μmol/kg once at 4 weeks of age. Here is the method: (§1) Male and female Npc1 homozygous mutant (BALB/cNctr‐Npc1 ^m1N, Npc1 ^−/−) mice,[36] kindly donated by Prof. Kousaku Ohno and Dr. Katsumi Higaki, were used as a murine model of NPC. Age‐matched WT mice were used as controls. The mice were bred and housed under specific pathogen‐free conditions in the Center for Animal Resources and Development, Kumamoto University. The mice were housed in cages in a room under controlled temperature (24°C) and a 12/12‐h light/dark cycle, and provided with free access to food and water. The animal experiments were performed at the Department of Clinical Chemistry and Informatics, Graduate School of Pharmaceutical Sciences, Kumamoto University. CD derivatives were dissolved in distilled water, and the osmotic pressure was adjusted with sodium chloride to near physiological osmolality. The pH was adjusted to 7.4 using sodium hydroxide, and the solution was filtered with an Advantec DISMIC‐13CP 0.45‐μm filter (Toyo Roshi Kaisha, Ltd.). […] The survival times were recorded based on the day when the endpoint was reached, defined as death or the inability to consume food or drink independently.
Organ samples were fixed in 4% buffered paraformaldehyde immediately after collection and then embedded in paraffin. […] Histopathological changes were photographed and analyzed by microscopy (BioRevo BZ‐9000; Keyence Co.). […]

Data set [3] relates to WT mice. Briefly: Systemic biocompatibility of subcutaneous CD derivatives in mice. The settings on record: SC 5.7 mmol/kg, 24 h later. It is filed as in vivo. As to the method: as §1
Organ samples were fixed in 4% buffered paraformaldehyde immediately after collection and then embedded in paraffin. […] Histopathological changes were photographed and analyzed by microscopy (BioRevo BZ‐9000; Keyence Co.).

Data set [4] is described as follows: UC solubility analysis; binding constants of 1:1 and 2:1 CD:UC complexes. Format: physicochemical. As to conditions: as a function of CD concentration, 37°C. Here is the method:
An excess of UC (10 mg) was added to each concentration of CD derivative in distilled water and shaken at 37°C for 3 h at 180 rpm. After equilibrium was attained (Figure S1), an aliquot was filtered through a Millex‐HP PES 0.45‐μm filter (Merck Millipore Ltd.). The filtrate was mixed and shaken for 10 min with an appropriate volume of chloroform/methanol (2:1, v/v). After centrifugation (1500 × g, 10 min, 4°C), the chloroform phase was recovered and evaporated. The residue was dissolved in a solvent consisting of 2‐propanol, polyoxyethylene alkyl ether and polyoxyethylene lauryl ether (87:10:3), and the concentration of UC was measured with a Determiner L FC kit (Kyowa Hakko Kirin Co., Ltd.) on a microplate reader (Tecan Group, Ltd.). Three replicate samples were performed. The binding constants of the 1:1 and the 2:1 CD:UC complexes were calculated according to a previously established method.[26]

Data set [5] deals with WT mice. As to the kind of experiment: Auditory brainstem response (ABR) after CD derivatives in mice. Format: in vivo. The settings on record: 1 week after, 4-32 kHz. As to the method: Male and female Npc1 homozygous mutant (BALB/cNctr‐Npc1 ^m1N, Npc1 ^−/−) mice,[36] kindly donated by Prof. Kousaku Ohno and Dr. Katsumi Higaki, were used as a murine model of NPC. Age‐matched WT mice were used as controls. The mice were bred and housed under specific pathogen‐free conditions in the Center for Animal Resources and Development, Kumamoto University. The mice were housed in cages in a room under controlled temperature (24°C) and a 12/12‐h light/dark cycle, and provided with free access to food and water. The animal experiments were performed at the Department of Clinical Chemistry and Informatics, Graduate School of Pharmaceutical Sciences, Kumamoto University. CD derivatives were dissolved in distilled water, and the osmotic pressure was adjusted with sodium chloride to near physiological osmolality. The pH was adjusted to 7.4 using sodium hydroxide, and the solution was filtered with an Advantec DISMIC‐13CP 0.45‐μm filter (Toyo Roshi Kaisha, Ltd.). Intracerebroventricular administration was performed using stereotaxic instruments (IMPACT‐1000C and KDS 310 Plus; Muromachi Kikai Co., Ltd.) under anaesthesia (medetomidine:midazolam:butorphanol, 0.3:4.0:5.0 mg/kg, intraperitoneally). The subcutaneous injection volume was 20 mL/kg for all experimental groups. The survival times were recorded based on the day when the endpoint was reached, defined as death or the inability to consume food or drink independently.
Auditory thresholds were measured using auditory brainstem response (ABR) System 3 (Tucker‐Davis Technologies). The animals were anaesthetized by intraperitoneal administration of xylazine and ketamine‐HCl in saline. Electrodes were placed beneath the pinna of the treated ear and at the vertex just below the surface of the skin, and the ground electrode was then placed under the contralateral ear. An average of 512 sweeps was calculated at 4, 8, 12, 20 and 32 kHz. The stimulus levels near the threshold were varied in 5‐dB steps, and the threshold was defined as the lowest level at which waves in the ABR could be clearly detected by visual inspection.

The next data set has as its system α‐glucosidase. The settings on record: cited from earlier work.

In the case of 2‐hydroxybutyl‐β‐CD [HB‐β‐CD], the concentration for a half-maximal effect (EC50) in data set [1] was 11.6 µM.

As to 2‐hydroxybutyl‐γ‐CD [HB‐γ‐CD], in data set [2], the body weight decline entry was “mitigated”; the “lifespan and median survival time” value is on record as “drastically prolonged”. The “total protein concentration in BALF” value with WT mice [3] is “significant increases”. Moreover, the EC50 in data set [1] is 11.5 µM.

2‐hydroxypropyl‐α‐CD [HP‐α‐CD]: the “UC solubilization profile in aqueous solution” value in data set [4] is “negligible”. Moreover, the ABR threshold result in the data set on WT mice [5] (single ICV 21.4 μmol/kg) and with WT mice [5] (single SC 5.7 mmol/kg) was “did not cause any change” in each case. In addition, the EC/TC ratio entry in data set [1] (Npc1‐null cells, above 0.1 mM) is on record as “significantly diminished”. For the same substance, the “intracellular UC levels” value in data set [1] (Npc1‐null cells, concentration‐dependent, 1 mM) is on record as “significantly diminished”.

For the substance “2‐hydroxypropyl‐β‐CD [HP‐β‐CD, reference compound]”, the ABR threshold result in the data set on WT mice [5] (single SC 5.7 mmol/kg) is “significantly increased”. For the same substance, the EC50 in data set [1] worked out at 40.3 µM.

Consider 2‐hydroxypropyl‐γ‐CD [HP‐γ‐CD], for which the ABR threshold entry in the data set with WT mice [5] (single SC 5.7 mmol/kg) is on record as “only a moderate increase”. Further, in data set [1], the EC50 came to 69.6 µM.

In the case of mono‐6‐O‐α‐glucosyl‐β‐CD [G1‐β‐CD], the EC50 in data set [1] came to 59.6 µM.

In the case of mono‐6‐O‐α‐glucosyl‐γ‐CD [G1‐γ‐CD], the EC50 in data set [1] is 156 µM.

As for mono‐6‐O‐α‐maltosyl‐β‐CD [G2‐β‐CD], in the data set on α‐glucosidase, the “biodegradation to G1‐β‐CD in whole blood” value was “rapidly biodegraded”. Also, the EC50 in data set [1] is 56 µM.

In the case of mono‐6‐O‐α‐maltosyl‐γ‐CD [G2‐γ‐CD], the EC50 in data set [1] came to 182 µM.
